Measured values as given in ChEMBL document CHEMBL5096234, “Discovery, Optimization, and Evaluation of Selective CDK4/6 Inhibitors for the Treatment of Breast Cancer” (J Med Chem, 2022).

What was measured:
CDK6/cyclin D1 = CDK6/cyclin D1 (Homo sapiens, UniProt Q00534); experiment: Inhibition of CDK6/cyclin-D1 (unknown origin) in presence of ATP by time resolved-FRET assay; assay type: protein-complex assay
CDK9/cyclin T1 = CDK9/cyclin T1 (Homo sapiens, UniProt P50750); experiment: Inhibition of CDK9/Cyclin T1 (unknown origin) in presence of ATP by time resolved-FRET assay; assay type: protein-complex assay
[1] = Inhibition of CDK1/cyclin B (unknown origin) in presence of ATP by time resolved-FRET assay; parameters: species or system Homo sapiens
CDK7/Cyclin H/MNAT1 = CDK7/Cyclin H/MNAT1 (Homo sapiens, UniProt P50613); experiment: Inhibition of CDK7/cyclin H/MAT1 (unknown origin) in presence of ATP by time resolved-FRET assay; assay type: protein-complex assay
CDK2/Cyclin A2 = CDK2/Cyclin A2 (Homo sapiens, UniProt P24941); experiment: Inhibition of CDK2/Cyclin A (unknown origin) in presence of ATP by time resolved-FRET assay; assay type: protein-complex assay
CDK4/Cyclin D3 = CDK4/Cyclin D3 (Homo sapiens, UniProt P11802); experiment: Inhibition of CDK4/cyclin-D3 (unknown origin) in presence of ATP by time resolved-FRET assay; assay type: protein-complex assay
MCF7 [2] = experiment: Antiproliferative activity against human MCF7 cells assessed as cell growth inhibition incubated for 72 hrs by CCK-8 assay; assay type: functional
MCF7 [3] = experiment: Induction of cell cycle arrest in human MCF7 cells assessed as accumulation of cells at G2 phase at 1.5 uM incubated for 24 hrs by propidium iodide staining based flow cytometry analysis (reference value: 29.66%); assay type: functional
MCF7 [4] = experiment: Induction of cell cycle arrest in human MCF7 cells assessed as accumulation of cells at G1 phase at 1.5 uM incubated for 24 hrs by propidium iodide staining based flow cytometry analysis (reference value: 57.38%); assay type: functional
MCF-10A = experiment: Antiproliferative activity against human MCF-10A cells assessed as cell growth inhibition incubated for 72 hrs by CCK-8 assay; assay type: functional
T47D [5] = experiment: Induction of cell cycle arrest in human T47D cells assessed as accumulation of cells at G1 phase at 1.5 uM incubated for 24 hrs by propidium iodide staining based flow cytometry analysis (reference value: 69.55 %); assay type: functional
T47D [6] = experiment: Antiproliferative activity against human T47D cells assessed as cell growth inhibition incubated for 72 hrs by CCK-8 assay; assay type: functional
T47D [7] = experiment: Induction of cell cycle arrest in human T47D cells assessed as accumulation of cells at G2 phase at 1.5 uM incubated for 24 hrs by propidium iodide staining based flow cytometry analysis (reference value: 16.57%); assay type: functional
MCF7 [8] = experiment: Induction of cell cycle arrest in human MCF7 cells assessed as accumulation of cells at G1 phase at 2.5 uM incubated for 24 hrs by propidium iodide staining based flow cytometry analysis (reference value: 57.38%); assay type: functional
MCF7 [9] = experiment: Induction of cell cycle arrest in human MCF7 cells assessed as accumulation of cells at G2 phase at 2.5 uM incubated for 24 hrs by propidium iodide staining based flow cytometry analysis (reference value: 29.66%); assay type: functional
ZR-75-1 = experiment: Antiproliferative activity against human ZR-75-1 cells assessed as cell growth inhibition incubated for 72 hrs by CCK-8 assay; assay type: functional

Sequence of CDK7/Cyclin H/MNAT1 (P51946 whole entry): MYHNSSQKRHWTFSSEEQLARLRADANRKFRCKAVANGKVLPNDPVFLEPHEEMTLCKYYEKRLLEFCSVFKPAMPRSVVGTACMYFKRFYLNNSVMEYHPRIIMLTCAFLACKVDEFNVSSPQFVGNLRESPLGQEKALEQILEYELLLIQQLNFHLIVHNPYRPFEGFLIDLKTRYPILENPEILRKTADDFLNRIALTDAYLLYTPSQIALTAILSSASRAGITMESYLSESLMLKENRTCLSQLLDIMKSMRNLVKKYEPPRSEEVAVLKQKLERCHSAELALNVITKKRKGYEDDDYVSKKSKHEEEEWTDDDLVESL
Sequence of CDK7/Cyclin H/MNAT1 (P50613 whole entry): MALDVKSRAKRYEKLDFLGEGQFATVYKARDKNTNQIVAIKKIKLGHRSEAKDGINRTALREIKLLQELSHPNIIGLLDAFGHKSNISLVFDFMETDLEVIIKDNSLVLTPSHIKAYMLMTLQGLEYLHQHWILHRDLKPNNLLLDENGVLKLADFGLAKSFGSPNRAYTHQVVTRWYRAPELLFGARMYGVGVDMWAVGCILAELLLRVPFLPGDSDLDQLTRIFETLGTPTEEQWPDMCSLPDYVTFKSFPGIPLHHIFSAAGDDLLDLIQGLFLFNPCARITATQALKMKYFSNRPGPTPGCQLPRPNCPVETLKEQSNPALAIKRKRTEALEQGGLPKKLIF
Sequence of CDK7/Cyclin H/MNAT1 (P51948 whole entry, further chain): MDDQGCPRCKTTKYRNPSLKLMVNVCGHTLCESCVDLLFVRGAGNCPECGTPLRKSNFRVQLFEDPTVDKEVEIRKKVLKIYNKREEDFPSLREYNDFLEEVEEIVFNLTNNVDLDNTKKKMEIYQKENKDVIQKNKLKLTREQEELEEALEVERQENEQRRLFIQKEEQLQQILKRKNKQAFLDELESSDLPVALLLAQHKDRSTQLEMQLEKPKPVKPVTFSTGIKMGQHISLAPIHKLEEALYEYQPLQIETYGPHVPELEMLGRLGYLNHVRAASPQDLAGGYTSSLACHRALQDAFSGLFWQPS
Sequence of CDK9/cyclin T1 (O60563 whole entry): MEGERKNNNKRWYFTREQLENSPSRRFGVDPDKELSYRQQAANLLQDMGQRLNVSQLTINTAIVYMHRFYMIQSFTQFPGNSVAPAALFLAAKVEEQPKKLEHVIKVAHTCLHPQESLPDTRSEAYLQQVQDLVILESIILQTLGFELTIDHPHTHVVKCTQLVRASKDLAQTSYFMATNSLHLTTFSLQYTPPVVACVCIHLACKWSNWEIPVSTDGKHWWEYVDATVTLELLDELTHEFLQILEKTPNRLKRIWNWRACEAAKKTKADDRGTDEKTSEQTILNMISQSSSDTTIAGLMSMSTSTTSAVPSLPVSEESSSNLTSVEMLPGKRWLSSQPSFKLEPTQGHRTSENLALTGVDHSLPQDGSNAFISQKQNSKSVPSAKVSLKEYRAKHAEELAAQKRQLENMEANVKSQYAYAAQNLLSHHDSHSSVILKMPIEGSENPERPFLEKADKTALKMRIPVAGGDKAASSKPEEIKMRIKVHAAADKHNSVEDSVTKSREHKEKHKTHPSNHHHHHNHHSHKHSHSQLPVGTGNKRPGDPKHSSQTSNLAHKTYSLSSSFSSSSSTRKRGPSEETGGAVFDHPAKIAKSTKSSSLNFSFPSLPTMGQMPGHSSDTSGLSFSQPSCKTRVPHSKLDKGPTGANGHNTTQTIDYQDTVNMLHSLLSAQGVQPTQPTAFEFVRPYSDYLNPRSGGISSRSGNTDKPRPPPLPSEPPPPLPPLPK
Sequence of CDK9/cyclin T1 (P50750 whole entry): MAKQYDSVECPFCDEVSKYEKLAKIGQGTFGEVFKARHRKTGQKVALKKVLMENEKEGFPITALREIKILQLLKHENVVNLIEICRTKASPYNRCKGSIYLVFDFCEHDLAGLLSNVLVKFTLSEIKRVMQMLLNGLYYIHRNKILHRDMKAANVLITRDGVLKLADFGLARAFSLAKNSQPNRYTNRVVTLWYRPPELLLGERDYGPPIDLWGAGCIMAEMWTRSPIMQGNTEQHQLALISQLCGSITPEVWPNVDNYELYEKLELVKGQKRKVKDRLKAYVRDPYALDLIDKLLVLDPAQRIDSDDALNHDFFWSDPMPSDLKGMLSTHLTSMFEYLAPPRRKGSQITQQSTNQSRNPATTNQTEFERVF
Sequence of CDK4/Cyclin D3 (P11802 whole entry): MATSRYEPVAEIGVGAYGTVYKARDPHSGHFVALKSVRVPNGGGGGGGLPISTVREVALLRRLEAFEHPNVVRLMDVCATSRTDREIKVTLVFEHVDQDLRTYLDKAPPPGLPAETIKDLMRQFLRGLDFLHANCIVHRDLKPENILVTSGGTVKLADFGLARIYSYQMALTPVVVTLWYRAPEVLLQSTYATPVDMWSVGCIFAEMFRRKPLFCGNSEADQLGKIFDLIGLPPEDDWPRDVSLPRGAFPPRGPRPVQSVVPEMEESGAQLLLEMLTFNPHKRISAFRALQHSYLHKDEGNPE
Sequence of CDK4/Cyclin D3 (P30281 whole entry, further chain): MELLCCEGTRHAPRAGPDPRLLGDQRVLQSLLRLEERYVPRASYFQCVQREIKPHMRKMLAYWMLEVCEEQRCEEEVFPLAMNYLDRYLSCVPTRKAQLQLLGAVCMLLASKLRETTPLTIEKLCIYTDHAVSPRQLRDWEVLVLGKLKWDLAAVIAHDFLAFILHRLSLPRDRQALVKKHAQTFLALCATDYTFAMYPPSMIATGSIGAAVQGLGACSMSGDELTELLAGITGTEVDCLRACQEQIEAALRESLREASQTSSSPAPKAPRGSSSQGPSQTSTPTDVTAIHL
Sequence of CDK6/cyclin D1 (P24385 whole entry): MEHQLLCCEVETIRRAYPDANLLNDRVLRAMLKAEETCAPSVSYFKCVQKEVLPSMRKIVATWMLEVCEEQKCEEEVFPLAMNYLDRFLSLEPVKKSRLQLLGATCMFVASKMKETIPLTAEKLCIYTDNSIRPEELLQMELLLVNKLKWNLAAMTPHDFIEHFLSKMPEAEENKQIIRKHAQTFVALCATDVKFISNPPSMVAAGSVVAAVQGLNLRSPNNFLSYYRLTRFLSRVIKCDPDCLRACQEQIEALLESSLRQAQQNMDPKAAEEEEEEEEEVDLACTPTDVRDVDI
Sequence of CDK6/cyclin D1 (Q00534 whole entry): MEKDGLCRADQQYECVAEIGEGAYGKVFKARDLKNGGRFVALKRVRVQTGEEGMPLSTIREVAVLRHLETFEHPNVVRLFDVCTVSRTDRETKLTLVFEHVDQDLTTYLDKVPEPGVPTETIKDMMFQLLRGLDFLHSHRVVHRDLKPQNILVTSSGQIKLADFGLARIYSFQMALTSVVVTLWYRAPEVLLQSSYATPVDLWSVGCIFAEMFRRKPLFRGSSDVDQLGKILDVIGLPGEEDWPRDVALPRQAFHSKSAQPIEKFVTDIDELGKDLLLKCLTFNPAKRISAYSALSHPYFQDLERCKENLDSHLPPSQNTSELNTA

Q: With `CC(C)(C)OC(=O)N1CCN(c2ccc(Nc3ncc(F)c(-c4ccc5c(c4)OCCO5)n3)nc2)CC1` as the compound, how does the IC50 (CDK6/cyclin D1) read?
A: The IC50 was over 10 µM.

Q: With `CCN1CCN(C(=O)c2ccc(Nc3ncc(F)c(-c4ccc5c(c4)OCO5)n3)nc2)CC1` as the compound, how does the IC50 (CDK6/cyclin D1) read?
A: The IC50 was 0.333 µM.

Q: Which IC50 (CDK6/cyclin D1) does the source give for `CC(C)(C)OC(=O)N1CCN(c2ccc(Nc3ncc(F)c(-c4ccc5c(c4)OCO5)n3)nc2)CC1` here?
A: The IC50 was over 10 µM.

Q: For `CC(C)N1CCN(C(=O)c2ccc(Nc3ncc(F)c(-c4ccc5c(c4)OCO5)n3)nc2)CC1`, which IC50 (CDK6/cyclin D1) is on record?
A: Its IC50 is 0.296 µM.

Q: What does the source list for `CC(C)N1CCc2cc(-c3nc(Nc4ccc(N5CCNCC5)cn4)ncc3F)ccc2C1=O`?
A: IC50 (CDK9/cyclin T1): 1.96 µM; IC50 [1]: 6.96 µM; IC50 (CDK7/Cyclin H/MNAT1): 8.72 µM; IC50 (CDK2/Cyclin A2): 0.495 µM; IC50 (CDK4/Cyclin D3): 0.014 µM; GI50 (MCF7 [2]): 3.07 µM; IC50 (CDK6/cyclin D1): 0.042 µM

Q: For `CCN1CCN(C(=O)c2ccc(Nc3ncc(F)c(-c4ccc5c(c4)OCCO5)n3)nc2)CC1`, which IC50 (CDK6/cyclin D1) is on record?
A: Its IC50 is 0.112 µM.

Q: Which IC50 (CDK6/cyclin D1) does the source give for `CC(C)N1CCN(C(=O)c2ccc(Nc3ncc(F)c(-c4ccc5c(c4)CCC(=O)N5C(C)C)n3)nc2)CC1` here?
A: The IC50 was over 1 µM.

Q: For `CC(C)(C)OC(=O)N1CCN(Cc2ccc(Nc3ncc(F)c(-c4ccc5c(c4)OCCO5)n3)nc2)CC1`, which IC50 (CDK6/cyclin D1) is on record?
A: The IC50 was over 10 µM.

Q: For `CCN1CCN(C(=O)c2ccc(Nc3ncc(F)c(-c4ccc5c(c4)CCN(C(C)C)C5=O)n3)nc2)CC1`, which IC50 (CDK6/cyclin D1) is on record?
A: Its IC50 is 0.317 µM.

Q: With `CCN1CCN(Cc2ccc(Nc3ncc(F)c(-c4ccc5c(c4)OCO5)n3)nc2)CC1` as the compound, how does the IC50 (CDK6/cyclin D1) read?
A: Its IC50 is 0.254 µM.

Q: Which Activity (MCF7 [3]) does the source give for `CCN1CCN(Cc2ccc(Nc3ncc(F)c(-c4cc(F)c5nc(C)n(C(C)C)c5c4)n3)nc2)CC1` [ABEMACICLIB] here?
A: The Activity was 17.65%.

Q: What about the Activity (MCF7 [4]) of the same compound?
A: The Activity was 77.44%.

Q: And the GI50 (MCF-10A)?
A: The GI50 was 5.09 µM.

Q: What about the Activity (T47D [5]) of the same compound?
A: The Activity was 81.8%.

Q: And the GI50 (MCF7 [2])?
A: Its GI50 is 0.832 µM.

Q: What about the GI50 (T47D [6]) of the same compound?
A: Its GI50 is 0.771 µM.

Q: And the Activity (T47D [7])?
A: Its Activity is 9.32%.

Q: For `CC(C)(C)OC(=O)N1CCN(C(=O)c2ccc(Nc3ncc(F)c(-c4ccc5c(c4)OCCO5)n3)nc2)CC1`, which IC50 (CDK6/cyclin D1) is on record?
A: Its IC50 is over 10 µM.

Q: For `O=C1NCCc2cc(-c3nc(Nc4ccc(N5CCNCC5)cn4)ncc3F)ccc21`, which IC50 (CDK9/cyclin T1) is on record?
A: The IC50 was 0.382 µM.

Q: What about the IC50 [1] of the same compound?
A: The IC50 was 0.148 µM.

Q: What about the IC50 (CDK7/Cyclin H/MNAT1) of the same compound?
A: Its IC50 is 8.24 µM.

Q: And the IC50 (CDK2/Cyclin A2)?
A: The IC50 was 0.175 µM.

Q: And the IC50 (CDK4/Cyclin D3)?
A: The IC50 was 0.008 µM.

Q: And the GI50 (MCF7 [2])?
A: Its GI50 is 2.9 µM.

Q: And the IC50 (CDK6/cyclin D1)?
A: Its IC50 is 0.036 µM.

Q: With `CN1CCN(c2ccc(Nc3ncc(F)c(-c4ccc5c(c4)OCCO5)n3)nc2)CC1` as the compound, how does the IC50 (CDK6/cyclin D1) read?
A: Its IC50 is 0.66 µM.

Q: Which IC50 (CDK6/cyclin D1) does the source give for `CCN1CCN(C(=O)c2ccc(Nc3ncc(F)c(-c4ccc5c(c4)CCC(=O)N5C(C)C)n3)nc2)CC1` here?
A: The IC50 was 3.72 µM.

Q: Which IC50 (CDK6/cyclin D1) does the source give for `CCN1CCN(C(=O)c2ccc(Nc3ncc(F)c(-c4ccc5c(c4)OCCC5=O)n3)nc2)CC1` here?
A: The IC50 was 0.336 µM.

Q: With `CCN1CCN(Cc2ccc(Nc3ncc(F)c(-c4ccc5c(c4)OCCO5)n3)nc2)CC1` as the compound, how does the IC50 (CDK4/Cyclin D3) read?
A: Its IC50 is 0.08 µM.

Q: What about the GI50 (MCF7 [2]) of the same compound?
A: The GI50 was 4.71 µM.

Q: And the IC50 (CDK6/cyclin D1)?
A: Its IC50 is 0.097 µM.

Q: With `CC(C)N1CCN(Cc2ccc(Nc3ncc(F)c(-c4ccc5c(c4)OCCO5)n3)nc2)CC1` as the compound, how does the IC50 (CDK6/cyclin D1) read?
A: The IC50 was 0.138 µM.

Q: Which results are given for `Fc1cnc(Nc2ccc(N3CCNCC3)cn2)nc1-c1ccc2c(c1)OCCO2`?
A: IC50 (CDK4/Cyclin D3): 0.036 µM; GI50 (MCF7 [2]): 3.77 µM; IC50 (CDK6/cyclin D1): 0.081 µM

Q: With `Fc1cnc(Nc2ccc(CN3CCNCC3)cn2)nc1-c1ccc2c(c1)OCCO2` as the compound, how does the IC50 (CDK6/cyclin D1) read?
A: The IC50 was 0.136 µM.

Q: With `CC(C)N1CCN(Cc2ccc(Nc3ncc(F)c(-c4ccc5c(c4)CCC(=O)N5C(C)C)n3)nc2)CC1` as the compound, how does the IC50 (CDK6/cyclin D1) read?
A: Its IC50 is over 1 µM.

Q: With `CC(C)N1CCN(Cc2ccc(Nc3ncc(F)c(-c4ccc5c(c4)CCN(C(C)C)C5=O)n3)nc2)CC1` as the compound, how does the IC50 (CDK6/cyclin D1) read?
A: Its IC50 is 0.64 µM.

Q: For `Fc1cnc(Nc2ccc(N3CCNCC3)cn2)nc1-c1ccc2c(c1)OCO2`, which IC50 (CDK6/cyclin D1) is on record?
A: Its IC50 is 0.12 µM.

Q: Which IC50 (CDK9/cyclin T1) does the source give for `CN1CCc2cc(-c3nc(Nc4ccc(N5CCNCC5)cn4)ncc3F)ccc2C1=O` here?
A: Its IC50 is 1.04 µM.

Q: And the IC50 [1]?
A: Its IC50 is 1.21 µM.

Q: What about the IC50 (CDK7/Cyclin H/MNAT1) of the same compound?
A: The IC50 was over 10 µM.

Q: And the IC50 (CDK2/Cyclin A2)?
A: The IC50 was 0.676 µM.

Q: And the IC50 (CDK4/Cyclin D3)?
A: Its IC50 is 0.003 µM.

Q: And the GI50 (MCF7 [2])?
A: The GI50 was 2.97 µM.

Q: And the IC50 (CDK6/cyclin D1)?
A: The IC50 was 0.032 µM.

Q: Which IC50 (CDK6/cyclin D1) does the source give for `O=C(c1ccc(Nc2ncc(F)c(-c3ccc4c(c3)OCCO4)n2)nc1)N1CCNCC1` here?
A: Its IC50 is 0.117 µM.

Q: What does the source list for `CCN1CCN(C(=O)c2ccc(Nc3ncc(F)c(-c4ccc5c(c4)CCNC5=O)n3)nc2)CC1`?
A: IC50 (CDK4/Cyclin D3): 0.021 µM; GI50 (MCF7 [2]): 3.24 µM; IC50 (CDK6/cyclin D1): 0.06 µM

Q: For `CC(=O)c1c(C)c2cnc(Nc3ccc(N4CCNCC4)cn3)nc2n(C2CCCC2)c1=O` [PALBOCICLIB], which Activity (MCF7 [8]) is on record?
A: The Activity was 81.49%.

Q: And the Activity (MCF7 [9])?
A: The Activity was 14.51%.

Q: And the GI50 (MCF-10A)?
A: Its GI50 is 19.1 µM.

Q: What about the Activity (T47D [5]) of the same compound?
A: The Activity was 84.74%.

Q: What about the GI50 (MCF7 [2]) of the same compound?
A: The GI50 was 3.94 µM.

Q: And the GI50 (ZR-75-1)?
A: The GI50 was 2.28 µM.

Q: What about the GI50 (T47D [6]) of the same compound?
A: The GI50 was 1.06 µM.

Q: And the Activity (T47D [7])?
A: The Activity was 6.13%.

Q: For `CC(C)N1CCN(C(=O)c2ccc(Nc3ncc(F)c(-c4ccc5c(c4)OCCO5)n3)nc2)CC1`, which IC50 (CDK6/cyclin D1) is on record?
A: The IC50 was 0.105 µM.

Q: With `CN1CCN(c2ccc(Nc3ncc(F)c(-c4ccc5c(c4)OCO5)n3)nc2)CC1` as the compound, how does the IC50 (CDK6/cyclin D1) read?
A: The IC50 was 1.14 µM.

Q: With `CC(C)N1CCN(C(=O)c2ccc(Nc3ncc(F)c(-c4ccc5c(c4)OCCC5=O)n3)nc2)CC1` as the compound, how does the IC50 (CDK6/cyclin D1) read?
A: The IC50 was 0.364 µM.
